According to article PMC12775823, “Glucosylceramide regulates depression through activating peroxisome proliferator-activated receptor gamma in dorsal striatum” (Theranostics, 2026):
Structures can show the parent of a compound that is named as a salt.

Tests used:
[1] = tested on: D2-MSNs in dorsal striatum of D2-Ugcg^f/f mice; test: DREADD (AAV-hM3Dq) activation of D2-MSNs, c-Fos and behavioral tests; conditions: CNO 1 mg/kg, i.p.
Procedure: Open field test (OFT). […] Mice were gently placed in the center and allowed to explore the area for 5 min. The total distance travelled and time spent in the center (20 × 20 cm^2) were recorded using EthoVision version 7.0 software (Noldus Information Technology, Netherlands).
Elevated plus maze test (EPMT). The apparatus consisted of two open arms (30 cm × 5 cm) and two closed arms (30 cm × 5 cm × 15 cm) extending from a central platform (5 cm × 5 cm), elevated 50 cm above the floor. Mice were placed on the central platform facing one of the open arms and allowed to explore the maze for 5 min. Behavior was recorded using a video camera positioned above the maze in conjunction with Anymaze tracking software (Stoelting Co.; Wood Dale, IL, USA).
Forced swimming test (FST). Each mouse was placed individually into a water-filled cylinder maintained at 23-25 °C and allowed to swim for 6 min. The first 2 min were considered an acclimation period, and data from this period were not included in the analysis. During the remaining 4 min, the behavior of the mice was recorded using EthoVision version 7.0 software (Noldus Information Technology, Netherlands).
D2-Cre or D2-Ugcg^f/f mice were bilaterally injected with AAV-hM3Dq into the dorsal striatum (AP +0.8 mm, ML ±1.5 mm, DV -3.0 mm). Following surgery, mice were given 3 weeks to express the virus before starting behavioral tests. Prior to each behavioral test, mice received an injection of Clozapine N-oxide (CNO; 1 mg/kg, i.p.; Sigma-Aldrich, USA) 30 min before the testing session.

CRS-induced mice = test: Behavioral tests (OFT, EPMT, LDT, SPT, FST) in chronic restraint stress mice, intra-dorsal striatal infusion; assay type: in vivo
Procedure: For intracranial injection, mice were surgically implanted with sterilized guide cannulae in dorsal striatum. […] Mice were intraperitoneally injected with CNO (1 mg/kg/d) before behavioral test.
Chronic restraint stress (CRS). For the CRS protocol, male C57BL/6J mice (8-10 weeks old) were obtained from Charles River Laboratories (Beijing, China). Mice were individually placed into well-ventilated 50 mL conical restraint tube (suitable for mice weighing 20-25 g) with multiple holes for 4 h daily between 10:00 AM and 2:00 PM to minimize circadian rhythm variations. The restraint stress procedure was conducted for 14 consecutive days. Then, all behavioral test were performed between 10:00 AM and 18:00 PM.
(§1) Elevated plus maze test (EPMT).
(§2) Light-dark Transition test (LDT).
(§3) Sucrose preference test (SPT).
(§4) Forced swimming test (FST).

PPARγ = tested on: T1, PPARγ; test: PPARγ mRNA, protein and transcriptional activity in dorsal striatum of CRS-induced mice; assay type: in vivo
T1 construct: from tissue; host or cells: mouse dorsal striatum
Source text: Dorsal striatal tissues were processed in accordance with the RNA isolation kit's instructions (RC102/RC112; Vazyme Biotech Co.,Ltd), mRNA was reverse transcribed using HiScript® III All-in-one RT SuperMix (Vazyme Biotech Co.,Ltd), and cDNA was amplified using SYBR Green (Vazyme Biotech Co.,Ltd). The 2^-ΔΔCt method was used to analyze gene expression, and the relative level of the target gene was normalized to Gapdh. The primer sequences can be found in Supplemental materials Table S1.
Brain tissues were cut into small pieces and then centrifuged at 13,000 g for 15 min at 4 °C. Supernatants were collected, and proteins concentrations were determined by BCA assay. Samples were denatured at 95 °C for 5 min and subsequently stored at -80 °C for further use. Protein samples were loaded onto 10% SDS-PAGE and transferred on PVDF membranes. After being blocked with 5% nonfat dry milk in Tris-buffered saline with 0.1% Tween-20 for 1.5 h, the PVDF membranes were incubated with corresponding primary antibodies overnight at 4 °C. Membranes were then incubated with HRP-conjugated secondary antibodies for 1 h at room temperature and measured with chemiluminescence imaging system (ChemiScope; Clinx, China).
Nuclear extracts were prepared from N2a cells using a nuclear extraction kit according to the manufacturer protocol. The binding reaction between PPARγ and PPRE was carried out at 4°C for 16 h using 3 μg of nuclear extracts. The binding activity between PPARγ and PPRE was indicated by the change of optical density (OD) at 405 nm, and an enzyme reaction was measured by HRP-conjugated antibody in complex of PPRE/ PPARγ/antibody.

GCS = tested on: T2, GCS; test: GCS activity in dorsal striatum of CRS-induced mice; assay type: in vivo; conditions: intra-dorsal striatal PDMP
T2 construct: from tissue; host or cells: mouse dorsal striatum

D2-Pparg^f/f mice = test: Behavioral tests in D2-Pparg f/f mice after intra-dorsal striatal microinfusion; assay type: in vivo; conditions: UNC 10 μM, 1 μL/side
Procedure: For intracranial injection, mice were surgically implanted with sterilized guide cannulae in dorsal striatum. Intra-dorsal striatal injection of PDMP (100 μM, 1 μL/injection), pioglitazone (100 μM, 1 μL/injection), UNC (10 μM, 1 μL/injection) was performed 30 min before behavioral test. Mice were intraperitoneally injected with CNO (1 mg/kg/d) before behavioral test.
as §1, §2, §3, §4

[2] = tested on: depression and bipolar disorder; design: method as in PMID 30699881; conditions: clinical; ref [10]; cited from earlier work
PPARγ target genes = test: qRT-PCR of PPARγ target genes in PPARγ-overexpressing N2a cells; assay type: cell-based; conditions: 0.1, 1 and 10 μM
[3] = LC-MS of GlcCer levels in dorsal striatum of CRS-induced mice; assay type: in vivo; conditions: intra-dorsal striatum infusion of pioglitazone, GlcCer or combination
Procedure: The procedure for the extraction of sphingolipids was established according to the LIPID MAPS protocol with modifications. Briefly, dorsal striatal tissues were added 0.5 mL of MeOH, 0.25 mL of CHCl3 and 7.5 μL of internal standards cocktail (2.5 μM). For sphingolipidomics, 5 μL of internal standards mixture (LM6002, Avanti polar lipids) was added. The mixture was then ultrasonicated for 45 s at room temperature and incubation at 48°C overnight. To avoid potentially interfering glycerolipids, 75 μL of KOH in MeOH (1M) was added, followed by incubation in a heat block at 200 rpm for 2 h at 37 °C. After neutralization, a four-step extraction process was performed to obtain SPL extract for analysis. The supernatant was transferred to a new Eppendorf tube and the resides were added l mL of MeOH and 2 mL of CHCl3, followed by centrifugation at 3800 rpm for 8 min. […] Sphingolipidomics were measured with ultra-high-performance liquid chromatography (UPLC) coupled with hybrid Quadrupole-Orbitrap high resolution mass spectrometry (Q-Exactive-HRMS). […] For […] quantitation, brain tissues were quantified by UPLC-MS/MS using a Q-Exactive-HRMS with UPLC. […] Quantification of […] with various fatty acid chain lengths were achieved using the calibration curve of each GlcCer species with closest number of chain length. […]

D2-Ugcg^f/f mice = test: Behavioral tests in D2-Ugcg f/f mice after intra-dorsal striatal microinfusion; assay type: in vivo; conditions: pioglitazone 1 μM, 1 μL per side
[4] = D2-Ugcg^f/f mice with AAV-hM3Dq
[5] = CRS mice, PDMP 100 μM, 1 μL/side

C[N+]1([O-])CCN(C2=Nc3cc(Cl)ccc3Nc3ccccc32)CC1 [CNO, Clozapine-N-oxide]
expression of c-Fos ([1]; AAV-hM3Dq-injected mice): significantly increased
immobility time in the FST [1, 4]: lower
time in the center area in the OFT [1, 4]: more time
time in the light room in the LDT [1, 4]: more time
time in the open arms in the EPMT [1, 4]: more time

CCCCCCCCCC(=O)N[C@@H](CN1CCOCC1)[C@@H](O)c1ccccc1.Cl [PDMP, (-)-L-threo-PDMP hydrochloride]
immobility time in the FST (CRS-induced mice; [5]): reduced
sucrose preference in the SPT (CRS-induced mice; [5]): restored
time spent in light area in the LDT (CRS-induced mice; [5]): increased
time spent in open arms in the EPMT (CRS-induced mice; [5]): increased
time spent in the center area in the OFT (CRS-induced mice; [5]): increased
anxiety- and depression-like behaviors following CRS (CRS-induced mice; PDMP 100 μM, 1 μL/side, intra-dorsal striatum): significantly ameliorated
PPARγ activity in the dorsal striatum (PPARγ; PDMP treatment): significantly enhanced
PPARγ mRNA or protein expression (PPARγ; PDMP treatment): did not alter
GCS activity in the dorsal striatum (GCS): significantly enhanced

Clc1cccc(N2CCN(CCCOc3ccc4scnc4c3)CC2)c1Cl [UNC, UNC9995]
reductions in the OFT, EPMT, LDT, SPT, and FST (D2-Pparg^f/f mice): effectively reversed

CCc1ccc(CCOc2ccc(CC3SC(=O)NC3=O)cc2)nc1 (centres unmarked) [pioglitazone, Pioglitazone hydrochloride]
symptoms of depression and bipolar disorder [2]: proven effective
stress-induced depression-like behaviors (overall) (CRS-induced mice; CRS mice, administration of GlcCer, pioglitazone or combined): reverses
PPARγ mRNA or protein expression (PPARγ; intra-dorsal striatum pioglitazone, GlcCer or combination): neither pioglitazone, GlcCer, nor their combination altered
expression of Adipoq and Leptin (PPARγ target genes): robustly upregulated
expression of Angptl4 (PPARγ target genes): significantly increased
expression of adipogenesis-related genes (Srebp-1c, Adrp, Fabp4, Fasn, Cd36) (PPARγ target genes): strongly induced
GlcCer levels in the dorsal striatum (LC-MS) [3]: did not alter
anxiety- and depression-like behaviors in the OFT, EPMT, LDT, SPT, and FST (D2-Ugcg^f/f mice): effectively reversed
